Measurements from US20250295790A1, “LECTIN-TARGETING CONJUGATES” (Helmholtz-Zentrum für Infektionsforschung GmbH, priority 2021, published 2025).

Columns and labels:
LecA = biological target: T1, LecA (Pseudomonas aeruginosa, UniProt Q05097); assay: Competitive binding assay based on fluorescence polarization with LecA; details: target LecA; read-out: IC50 ± s.d.
T1 construct: made in house
Procedure: LecA (according to Joachim et al.): A serial dilution of the test compounds was prepared in TBS/Ca (8.0 g/L NaCl, 2.4 g/L Tris, 0.19 g/L KCl, 0.15 g/L CaCl2·2 H2O), with 30% DMSO as co-solvent. […] The measured intensities were reduced by the values of only LecA in TBS/Ca and fluorescence polarization was calculated. The data was analysed with the MARS Data Analysis Software (BMG Labtech GmbH, Germany) and fitted according to the four-parameter variable slope model. Bottom and top plateaus were fixed according to the control compounds in each assay ((p-nitrophenyl)-p-D-galactoside) and the data was re-analysed with these values fixed. A minimum of three independent measurements on three plates was performed for each inhibitor.
Averages and standard deviations were calculated from at least three independent experiments.

[1] = type: in vitro ADME
Procedure: Each compound dissolved in DMSO was added to mouse plasma (pH 7.4, 37° C.) or to human plasma (pH 7.4, 37° C.) to yield a final concentration of 1 μM. In addition, procaine and procainamide (dissolved in DMSO) were added to mouse plasma or to human plasma (pH 7.4, 37° C.) to yield a final concentration of 1 μM. Procaine served as positive control as it is unstable in mouse plasma. Procainamide served as negative control as it is stable in mouse plasma. The samples were incubated for 0 min, 15 min, 30 min, 60 min, 90 min, 120 min and 240 min at 37° C. At each time point, 10 μl of the respective sample was extracted with 90 l acetonitrile and 1 μl of caffeine as internal standard for 5 min at 2000 rpm on a MixMate® vortex mixer (Eppendorf). Acetonitrile and caffeine were dispensed using a Mantis Formulatrix®. The samples were centrifuged for 20 min at 2270 ref at 4° C. and the supernatants were transferred to 96-well Greiner V-bottom plates. Samples were analysed using HPLC-MS/MS analysis as described in the respective section. Peak areas of each compound and of the internal standard were analysed using the MultiQuant 3.0 software (AB Sciex). […]
Cell samples as well as plasma stability, plasma protein binding and metabolic stability samples were analysed using an Agilent 1290 Infinity II coupled to an AB Sciex 6500plus mass spec-trometer. […]

LecB PAO1 = LecB PAO1 (Pseudomonas aeruginosa, UniProt Q9HYN5); type: binding; details: target LecB PAO1
LecB PAO1, sequence (Q9HYN5 entry or part of it): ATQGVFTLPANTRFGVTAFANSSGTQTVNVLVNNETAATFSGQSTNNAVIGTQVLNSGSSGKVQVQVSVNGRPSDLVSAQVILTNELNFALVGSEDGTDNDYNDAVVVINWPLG
Procedure: LecB (LecB PAO1 according to Hauck et al. and LecB PA14 according to Sommer et al.): A serial dilution of the test compounds was prepared in TBS/Ca, with 20% DMSO as cosolvent. […] Fluorescence was measured and analysed as for LecA. Bottom and top plateaus were fixed according to the control compound in each assay (1-fucose) and the data was re-analysed with these values fixed. A minimum of three independent measurements on three plates was performed for each inhibitor.

T1 sequence (Q05097 whole entry): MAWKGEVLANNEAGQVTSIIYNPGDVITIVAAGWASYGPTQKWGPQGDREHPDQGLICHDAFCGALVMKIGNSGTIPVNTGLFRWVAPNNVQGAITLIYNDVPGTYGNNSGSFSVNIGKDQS

| SMILES | IC50 (LecA) | plasma stability, t1/2 human [1] | plasma stability, t1/2 mouse [1] | IC50 (LecB PAO1) | IC50 ± s.d. (LecB PAO1) | Ki (LecB PAO1; calculated as Ki from IC50, read-out: Ki ± s.d.) |
| --- | --- | --- | --- | --- | --- | --- |
| CC(C)C[C@H](NC(=O)CNC(=O)[C@H](C)NC(=O)c1ccc(S[C@@H]2O[C@H](CO)[C@H](O)[C@H](O)[C@H]2O)cc1)C(=O)N[C@@H](C)C(=O)N[C@H]1CCN(c2cc3c(cc2F)c(=O)c(C(=O)O)cn3C2CC2)C1 [Compound 36] | ~30 µM | – | – | – | – | – |
| CC(C)CC(NC(=O)CNC(=O)C(C)NC(=O)c1ccc(S(=O)(=O)NCC2OC(C)C(O)C(O)C2O)cc1)C(=O)NC(C)C(=O)NC1CCN(c2cc3c(cc2F)c(=O)c(C(=O)O)cn3C2CC2)C1 (stereo not drawn) [Compound 37] | – | 2.25 h | 1.23 h | 3.59 ± 1.92 µM | one-digit micromolar range | 1.43 ± 0.9 µM |
